Columns and labels:
[1] = test system: genotype 1b (Con 1) subgenomic replicon cell line; experiment: HCV replicon assay, genotype 1b (Renilla luciferase); assay type: cell-based, HCV genotype 1b (Con 1); details: Hepatitis C virus; genotype 1b replicon, 72 hours, luciferase; read-out: genotype 1b EC50 (range class)
Description: A genotype 1b (Con 1) subgenomic replicon cell line based on Blight et al., Science 2000 290: 1972-1974, modified to express a Renilla luciferase reporter gene was used to assess antiviral activity of test compounds. Cell cultures were maintained in a sub-confluent state in DMEM with glutamine, 10% heat-inactivated foetal bovine serum (FBS) and G418 (Geneticin®).
For assay, cells were seeded at a density of 7000 cells/well into 96 well tissue culture trays in culture media lacking G418. Compounds were tested in a three fold dilution series, for example starting from 50 uM. After 72 hours incubation at 37° C. and 5% CO2, Renilla luciferase activity was quantified via the Promega Renilla Luciferase or Renilla-Glo™ Luciferase Assay Systems (Promega corporation. The same method was employed for replicon assays using subgenomic genotype 1a and 2a replicon cell lines with a seeding cell density of 5000 cells/well for the 2a cell lines.
The compound concentration that reduced luciferase activity by 50% (EC50) was calculated using non-linear regression.

1b (BK) NS5bΔ21 = 1b (BK) NS5bΔ21 (Hepatitis C virus genotype 1b (isolate BK) (HCV), UniProt P26663); experiment: HCV polymerase inhibition assay, genotype 1b; assay type: biochemical, HCV genotype 1b (BK); details: 1b (BK) NS5bΔ21, 33P-GTP incorporation; read-out: 1b polymerase IC50 (range class)
Sequence of 1b (BK) NS5bΔ21 (P26663 2420-2989): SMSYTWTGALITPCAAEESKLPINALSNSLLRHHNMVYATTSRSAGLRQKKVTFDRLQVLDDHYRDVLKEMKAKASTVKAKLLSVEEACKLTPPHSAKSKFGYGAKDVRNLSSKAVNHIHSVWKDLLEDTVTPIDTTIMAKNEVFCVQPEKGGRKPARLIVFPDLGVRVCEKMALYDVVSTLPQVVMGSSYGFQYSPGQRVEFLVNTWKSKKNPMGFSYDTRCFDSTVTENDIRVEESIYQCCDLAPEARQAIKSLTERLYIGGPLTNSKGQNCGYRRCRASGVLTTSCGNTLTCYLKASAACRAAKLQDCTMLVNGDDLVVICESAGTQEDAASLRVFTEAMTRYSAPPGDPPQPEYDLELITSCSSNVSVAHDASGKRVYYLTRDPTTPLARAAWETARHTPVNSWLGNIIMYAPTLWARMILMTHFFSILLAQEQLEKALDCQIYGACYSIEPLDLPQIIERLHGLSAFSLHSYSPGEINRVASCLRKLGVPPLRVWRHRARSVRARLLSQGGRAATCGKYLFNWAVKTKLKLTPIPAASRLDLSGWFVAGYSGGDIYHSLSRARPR
Description: HCV polymerase reactions were carried out using a modified method of Howe et al., Antimicrobial Agents and Chemotherapy 2004 48(12): 4813-4821. Reactions contained a final concentration of, 0.5% DMSO, 50 nM, 1b (BK) NS5bΔ21, 20 mM Tris-HCl pH 7.5, 5 mM MgCl2, 5 mM MnCl2, 3 mM DTT, 0.05% BSA, 0.2 U/μL RNasin, 10 μg/mL Poly(rC) template, GTP (at Km) and 0.05 μCi/μL ^33P-GTP in a total reaction volume of 50 μL. Compounds were tested in a three fold dilution series, for example starting from 50 μM. Reactions were initiated with the addition of GTP and terminated after 1 hour with 50 μL ice cold 0.2 M EDTA. Terminated reactions were transferred to DEAE 96-well filter plates, unincorporated nucleotides washed from the filters and 50 μL scintillation fluid added prior to reading on a scintillation counter. Similarly, a genotype 3a (VRL-69) NS5bΔ21 polymerase enzyme assay was conducted using essentially the same method.
The compound concentration that reduced ^33P-GTP incorporation by 50% (IC50) was calculated using non-linear regression.

Compound	EC50 [1]	IC50 (1b (BK) NS5bΔ21)
CNC(=O)c1c2cc(C3CC3)c(N(CCCC(=O)O)S(C)(=O)=O)cc2nn1-c1ccc(Br)cc1 [Compound 89, 4-{[2-(4-bromophenyl)-5-cyclopropyl-3-(methylcarbamoyl)-2H-indazol-6-yl](methylsulfonyl)amino}butanoic acid]	10000 to 50000 nM	< 990 nM
CNC(=O)c1c2cc(C3CC3)c(N(CCC(=O)O)S(C)(=O)=O)cc2nn1-c1ccc(Br)cc1 [Compound 90, N-[2-(4-bromophenyl)-5-cyclopropyl-3-(methylcarbamoyl)-2H-indazol-6-yl]-N-(methylsulfonyl)-beta-alanine]	10000 to 50000 nM	< 990 nM
CNC(=O)c1c2cc(C3CC3)c(N(CCC(=O)NC(C)C)S(C)(=O)=O)cc2nn1-c1ccc(Br)cc1 [Compound 91, 2-(4-bromophenyl)-5-cyclopropyl-N-methyl-6-((methylsulfonyl)[3-oxo-3-(propan-2-ylamino)propyl]amino)-2H-indazole-3-carboxamide]	1000 to 9990 nM	1000 to 9990 nM
CCC(C)OC(=O)CCCN(c1cc2nn(-c3ccc(Br)cc3)c(C(=O)NC)c2cc1C1CC1)S(C)(=O)=O (stereo not shown) [Compound 92, butan-2-yl 4-{[2-(4-bromophenyl)-5-cyclopropyl-3-(methylcarbamoyl)-2H-indazol-6-yl](methylsulfonyl)amino}butanoate]	< 990 nM	< 990 nM
CNC(=O)c1c2cc(C3CC3)c(N(CCCC(=O)Oc3ccccc3)S(C)(=O)=O)cc2nn1-c1ccc(Br)cc1 [Compound 93, phenyl 4-{[2-(4-bromophenyl)-5-cyclopropyl-3-(methylcarbamoyl)-2H-indazol-6-yl](methylsulfonyl)amino}butanoate]	1000 to 9990 nM	< 990 nM
CNC(=O)c1c2cc(C3CC3)c(N(CCCC(=O)OCOC(=O)C(C)(C)C)S(C)(=O)=O)cc2nn1-c1ccc(Br)cc1 [Compound 94, [(2,2-dimethylpropanoyl)oxy]methyl 4-{[2-(4-bromophenyl)-5-cyclopropyl-3-(methylcarbamoyl)-2H-indazol-6-yl](methylsulfonyl)amino}butanoate]	1000 to 9990 nM	< 990 nM
CNC(=O)c1c2cc(C3CC3)c(N(CCC(CO)CO)S(C)(=O)=O)cc2nn1-c1ccc(Br)cc1 [Compound 96, 2-(4-bromophenyl)-5-cyclopropyl-6-{[4-hydroxy-3-(hydroxymethyl)butyl] (methylsulfonyl)amino}-N-methyl-2H-indazole-3-carboxamide]	< 990 nM	< 990 nM
CNC(=O)c1c2cc(C3CC3)c(N(CCC3COC(=O)OC3)S(C)(=O)=O)cc2nn1-c1ccc(Br)cc1 [Compound 97, 2-(4-bromophenyl)-5-cyclopropyl-N-methyl-6-{(methylsulfonyl)[2-(2-oxo-1,3-dioxan-5-yl)-ethyl]amino}-2H-indazole-3-carboxamide]	1000 to 9990 nM	< 990 nM
CNC(=O)c1c2cc(C3CC3)c(N(CCCS(C)(=O)=O)S(C)(=O)=O)cc2nn1-c1ccc(Br)cc1 [Compound 100, 2-(4-bromophenyl)-5-cyclopropyl-N-methyl-6-[methylsulfonyl(3-methylsulfonylpropyl)amino]-2H-indazole-3-carboxamide]	< 990 nM	< 990 nM
CNC(=O)c1c2cc(C3CC3)c(N(CCC[S+](C)[O-])S(C)(=O)=O)cc2nn1-c1ccc(Br)cc1 (stereo not shown) [Compound 101, 2-(4-bromophenyl)-5-cyclopropyl-N-methyl-6-[3-methylsulfinylpropyl(methylsulfonyl)amino]-2H-indazole-3-carboxamide]	1000 to 9990 nM	< 990 nM
CNC(=O)c1c2cc(C3CC3)c(N(CCCS(N)(=O)=O)S(C)(=O)=O)cc2nn1-c1ccc(Br)cc1 [Compound 102, 2-(4-Bromophenyl)-5-cyclopropyl-N-methyl-6-[methylsulfonyl(3-sulfamoylpropyl)amino]-2H-indazole-3-carboxamide]	1000 to 9990 nM	< 990 nM
CNC(=O)c1c2cc(C3CC3)c(N3CCN(C)S3(=O)=O)cc2nn1-c1ccc(Br)cc1 [Compound 104, 2-(4-bromophenyl)-5-cyclopropyl-N-methyl-6-(5-methyl-1,1-dioxido-1,2,5-thiadiazolidin-2-yl)-2H-indazole-3-carboxamide]	1000 to 9990 nM	10000 to 50000 nM
CNC(=O)c1c2cc(C3CC3)c(N3CCCC3=O)cc2nn1-c1ccc(NCC(C)C)cc1 [Compound 105, 5-cyclopropyl-N-methyl-2-{4-[(2-methylpropyl)amino]phenyl}-6-(2-oxopyrrolidin-1-yl)-2H-indazole-3-carboxamide]	1000 to 9990 nM	10000 to 50000 nM
CNC(=O)c1c2cc(C3CC3)c(N(CC(C)O)S(C)(=O)=O)cc2nn1-c1ccc(Br)cc1 (stereo not shown) [Compound 106, 2-(4-Bromophenyl)-5-cyclopropyl-6-[2-hydroxypropyl(methylsulfonyl)amino]-N-methyl-2H-indazole-3-carboxamide]	1000 to 9990 nM	1000 to 9990 nM
CNC(=O)c1c2cc(C3CC3)c(N(C3CCNCC3)S(C)(=O)=O)cc2nn1-c1ccc(Br)cc1 [Compound 107, 2-(4-bromophenyl)-5-cyclopropyl-N-methyl-6-[methylsulfonyl(piperidin-4-yl)-amino]-2H-indazole-3-carboxamide]	1000 to 9990 nM	1000 to 9990 nM
CNC(=O)c1c2cc(C3CC3)c(N(C3CCN(S(C)(=O)=O)CC3)S(C)(=O)=O)cc2nn1-c1ccc(Br)cc1 [Compound 108, 2-(4-bromophenyl)-5-cyclopropyl-N-methyl-6-[methylsulfonyl-(1-methylsulfonyl(piperidin-4-yl))amino]-2H-indazole-3-carboxamide]	1000 to 9990 nM	< 990 nM

Compound	EC50 [1]	IC50 (1b (BK) NS5bΔ21)
CCN(c1cc2nn(-c3ccc(NCC(C)C)nc3)c(C(=O)NC)c2cc1C1CC1)S(C)(=O)=O [Compound 110, 5-cyclopropyl-6-[ethyl(methylsulfonyl)amino]-2-[6-(isobutylamino)-3-pyridyl]-N-methyl-2H-indazole-3-carboxamide]	< 990 nM	< 990 nM
CCCN(c1cc2nn(-c3ccc(Oc4ccc(F)cc4)cc3)c(C(=O)NC)c2cc1C1CC1)S(C)(=O)=O [Compound 113]	< 990 nM	< 990 nM
CNC(=O)c1c2cc(C3CC3)c(N(CCN3CCCCC3)S(C)(=O)=O)cc2nn1-c1ccc(Oc2ccc(F)cc2)cc1 [Compound 114]	1000 to 9990 nM	1000 to 9990 nM
CNC(=O)c1c2cc(C3CC3)c(N(CCCOC(=O)c3ccccc3C(=O)O)S(C)(=O)=O)cc2nn1-c1ccc(Oc2ccc(F)cc2)cc1 [Compound 115]	1000 to 9990 nM	< 990 nM
CNC(=O)c1c2cc(C3CC3)c(N(CCCOC(C)=O)S(C)(=O)=O)cc2nn1-c1ccc(Nc2ccc(F)cc2)cc1 [Compound 116]	< 990 nM	< 990 nM
CNC(=O)c1c2cc(C3CC3)c(N(CCCOC(=O)c3cnccn3)S(C)(=O)=O)cc2nn1-c1ccc(Oc2ccc(F)cc2)cc1 [Compound 118]	< 990 nM	< 990 nM
CNC(=O)c1c2cc(C3CC3)c(N(CCCO)S(C)(=O)=O)cc2nn1-c1ccc(NCC(C)C)cc1 [Compound 122]	< 990 nM	1000 to 9990 nM
CCN(c1cc2nn(-c3ccc(Nc4ccccc4F)cc3)c(C(=O)NC)c2cc1OC)S(C)(=O)=O [Compound 123]	< 990 nM	1000 to 9990 nM
CCN(c1cc2nn(-c3ccc(NCC(C)C)cc3)c(C(=O)NC)c2cc1OC)S(C)(=O)=O [Compound 124]	1000 to 9990 nM	1000 to 9990 nM
CCN(c1cc2nn(-c3ccccc3)c(C(=O)NC)c2cc1OC)S(C)(=O)=O [Compound 125]	1000 to 9990 nM	10000 to 50000 nM
CNC(=O)c1c2cc(OC)c(N(CCCO)S(C)(=O)=O)cc2nn1-c1ccc(Nc2ccccc2F)cc1 [Compound 126]	1000 to 9990 nM	1000 to 9990 nM
CNC(=O)c1c2cc(C3CC3)c(N3CCCCC3=O)cc2nn1-c1ccc(Nc2ccc(F)cc2)cc1 [Compound 127]	1000 to 9990 nM	10000 to 50000 nM
CNC(=O)c1c2cc(C3CC3)c(N3CCCS3(=O)=O)cc2nn1-c1ccc(Br)cc1 [Compound 128]	1000 to 9990 nM	1000 to 9990 nM
C=C(C)c1cc2c(C(=O)NC)n(-c3ccc(F)cc3)nc2cc1N(CC)S(C)(=O)=O [Compound 129]	1000 to 9990 nM	10000 to 50000 nM
CCN(c1cc2nn(-c3ccc(F)cc3)c(C(=O)NC)c2cc1Br)S(C)(=O)=O [Compound 132]	10000 to 50000 nM	1000 to 9990 nM
CNC(=O)c1c2cc(C3CC3)c(N(CCCNC(=O)CN)S(C)(=O)=O)cc2nn1-c1ccc(Br)cc1 [Compound 133]	1000 to 9990 nM	< 990 nM
